Assay results as given in US9938281B2 (Merck Sharp & Dohme Corp., priority 2012, dated 2018).

What was measured:
[1] = target: T1, PI3K-delta (Homo sapiens, UniProt O00329); experiment: HTRF PI3K biochemical assay, delta isoform; conditions: form screened (neutral or TFA salt) given, read-out: PI3Kdelta IC50
T1 construct: purchased Upstate; Millipore 14-604

[2] = target: T2, PI3K-alpha (Homo sapiens, UniProt P42336); experiment: HTRF PI3K biochemical assay, alpha isoform; conditions: ratio PI3K-alpha IC50 value / PI3K-delta IC50 value
T2 construct: purchased Upstate; Millipore 14-602
T2 sequence (P42336 whole entry, canonical isoform): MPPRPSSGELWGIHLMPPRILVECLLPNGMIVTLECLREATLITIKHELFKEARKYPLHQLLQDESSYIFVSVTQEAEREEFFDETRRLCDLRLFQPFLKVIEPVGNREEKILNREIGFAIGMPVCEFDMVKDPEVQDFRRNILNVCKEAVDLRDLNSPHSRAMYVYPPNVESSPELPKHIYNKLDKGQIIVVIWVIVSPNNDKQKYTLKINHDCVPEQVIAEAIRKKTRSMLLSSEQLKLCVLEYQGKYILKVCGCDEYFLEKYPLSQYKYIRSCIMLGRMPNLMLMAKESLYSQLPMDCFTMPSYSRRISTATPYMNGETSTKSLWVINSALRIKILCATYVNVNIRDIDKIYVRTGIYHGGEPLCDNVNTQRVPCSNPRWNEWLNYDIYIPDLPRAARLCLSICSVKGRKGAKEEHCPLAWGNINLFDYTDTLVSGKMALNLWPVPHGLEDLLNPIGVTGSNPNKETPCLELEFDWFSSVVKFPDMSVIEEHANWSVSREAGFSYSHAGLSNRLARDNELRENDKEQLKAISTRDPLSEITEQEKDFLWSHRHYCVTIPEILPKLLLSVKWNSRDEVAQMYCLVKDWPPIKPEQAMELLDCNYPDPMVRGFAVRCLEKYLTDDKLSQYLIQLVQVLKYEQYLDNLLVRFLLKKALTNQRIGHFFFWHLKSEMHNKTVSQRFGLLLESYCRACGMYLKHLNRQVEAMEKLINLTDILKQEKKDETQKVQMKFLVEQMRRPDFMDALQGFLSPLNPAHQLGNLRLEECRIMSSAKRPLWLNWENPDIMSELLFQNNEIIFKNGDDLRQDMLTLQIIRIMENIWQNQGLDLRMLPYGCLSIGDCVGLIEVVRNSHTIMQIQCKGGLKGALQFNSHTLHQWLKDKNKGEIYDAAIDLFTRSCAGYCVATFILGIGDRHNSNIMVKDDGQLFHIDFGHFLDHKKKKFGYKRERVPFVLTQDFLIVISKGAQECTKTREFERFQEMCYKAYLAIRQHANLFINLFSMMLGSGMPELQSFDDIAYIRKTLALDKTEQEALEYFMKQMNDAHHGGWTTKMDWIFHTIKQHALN
T2 sequence (P27986 whole entry partner, canonical isoform): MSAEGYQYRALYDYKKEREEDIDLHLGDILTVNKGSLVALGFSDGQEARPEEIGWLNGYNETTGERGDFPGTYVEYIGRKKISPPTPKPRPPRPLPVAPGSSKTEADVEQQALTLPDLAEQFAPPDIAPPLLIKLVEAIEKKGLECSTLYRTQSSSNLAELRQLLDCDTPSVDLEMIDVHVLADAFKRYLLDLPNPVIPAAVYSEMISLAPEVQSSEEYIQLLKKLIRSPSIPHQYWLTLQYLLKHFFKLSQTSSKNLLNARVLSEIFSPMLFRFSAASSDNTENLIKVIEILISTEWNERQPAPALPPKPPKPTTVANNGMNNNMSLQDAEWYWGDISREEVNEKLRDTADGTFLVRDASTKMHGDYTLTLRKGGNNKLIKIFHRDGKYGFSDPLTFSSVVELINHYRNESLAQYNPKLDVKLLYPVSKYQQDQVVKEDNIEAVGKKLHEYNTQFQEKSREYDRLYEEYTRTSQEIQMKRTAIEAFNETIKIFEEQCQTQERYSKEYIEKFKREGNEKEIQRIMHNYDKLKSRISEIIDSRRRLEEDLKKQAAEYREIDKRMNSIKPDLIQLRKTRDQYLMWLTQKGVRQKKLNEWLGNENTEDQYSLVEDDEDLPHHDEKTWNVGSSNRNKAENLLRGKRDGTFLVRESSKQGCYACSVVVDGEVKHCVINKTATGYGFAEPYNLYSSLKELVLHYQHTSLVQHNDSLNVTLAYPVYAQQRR

T1 sequence (O00329 whole entry, canonical isoform): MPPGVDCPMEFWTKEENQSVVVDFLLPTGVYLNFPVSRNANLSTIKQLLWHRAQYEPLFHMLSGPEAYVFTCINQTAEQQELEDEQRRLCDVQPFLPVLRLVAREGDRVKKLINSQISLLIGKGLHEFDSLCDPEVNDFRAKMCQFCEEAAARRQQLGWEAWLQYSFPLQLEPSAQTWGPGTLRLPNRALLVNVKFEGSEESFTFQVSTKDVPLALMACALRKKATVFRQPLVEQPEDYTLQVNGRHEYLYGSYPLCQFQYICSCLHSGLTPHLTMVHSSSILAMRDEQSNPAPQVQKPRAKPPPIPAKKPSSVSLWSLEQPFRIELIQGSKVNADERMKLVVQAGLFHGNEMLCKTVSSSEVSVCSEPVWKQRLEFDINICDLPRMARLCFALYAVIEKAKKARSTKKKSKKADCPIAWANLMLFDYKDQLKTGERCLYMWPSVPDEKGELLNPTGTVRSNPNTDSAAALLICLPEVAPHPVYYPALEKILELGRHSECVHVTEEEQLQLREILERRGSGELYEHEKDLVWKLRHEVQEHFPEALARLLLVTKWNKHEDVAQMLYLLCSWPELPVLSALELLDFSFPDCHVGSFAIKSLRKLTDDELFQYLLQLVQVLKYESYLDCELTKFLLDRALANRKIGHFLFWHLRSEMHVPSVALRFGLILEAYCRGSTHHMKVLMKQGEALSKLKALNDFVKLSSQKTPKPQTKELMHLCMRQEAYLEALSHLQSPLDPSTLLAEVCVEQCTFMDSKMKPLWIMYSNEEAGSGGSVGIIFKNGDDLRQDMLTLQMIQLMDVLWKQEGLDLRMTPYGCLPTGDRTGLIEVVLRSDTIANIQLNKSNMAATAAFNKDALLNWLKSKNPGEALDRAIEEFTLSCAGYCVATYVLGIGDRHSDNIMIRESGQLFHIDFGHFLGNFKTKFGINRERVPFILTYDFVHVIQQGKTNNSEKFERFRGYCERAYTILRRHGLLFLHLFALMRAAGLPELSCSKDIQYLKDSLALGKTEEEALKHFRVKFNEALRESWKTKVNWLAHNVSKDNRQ
T1 sequence (P27986 whole entry partner, canonical isoform): as the sequence (P27986 whole entry partner, canonical isoform) above

Row | IC50 [1] | Selectivity versus PI3Kalpha [2] | Compound
1 | < 1 nM | >10 | CCn1c(-c2cnc(C)nc2)nc2c(N[C@H]3CCN(C(=O)C4CC(O)C4)C3)ncnc21 (mixture of isomers) [Compound 2-63, (cis and trans)-3-{[(3S)-3-{[9-ethyl-8-(2-methylpyrimidin-5-yl)-9H-purin-6-yl]amino}pyrrolidin-1-yl]carbonyl}cyclobutanol]
2 | 10 nM | >10 | CCn1c(-c2cnc(C)nc2)nc2c(NC3CN(C(=O)OC(C)(C)C)CC3O)ncnc21 (racemic) [Compound 1-15, ((3R,4R) and (3S,4S))-tert-butyl 3-{[9-ethyl-8-(2-methylpyrimidin-5-yl)-9H-purin-6-yl]amino}-4-hydroxypyrrolidine-1-carboxylate]
3 | 9.4 nM | >10 | CCn1c(-c2cnc(C)nc2)nc2c(NC3CN(C(=O)OC(C)(C)C)CC3(F)F)ncnc21 (racemic) [Compound 1-21, (R and S)-tert-butyl 4-{[9-ethyl-8-(2-methylpyrimidin-5-yl)-9H-purin-6-yl]amino}-3,3-difluoropyrrolidine-1-carboxylate]
4 | 1.4 nM | >10 | CCn1c(-c2cnc(C)nc2)nc2c(N[C@H]3CCN(C(=O)C4CCOC(C)(C)C4)C3)ncnc21 (mixture of isomers) [Compound 2-20, ((S and R)-2,2-dimethyltetrahydro-2H-pyran-4-yl)((S)-3-((9-ethyl-8-(2-methylpyrimidin-5-yl)-9H-purin-6-yl)amino)pyrrolidin-1-yl)methanone]
5 | 3.7 nM | >10 | CCn1c(-c2cnc(C)nc2)nc2c(NC3CN(C(=O)C4CC4)CC3(F)F)ncnc21 (racemic) [Compound 2-25, N-[(3S and 3R)-1-(cyclopropylcarbonyl)-4,4-difluoropyrrolidin-3-yl]-9-ethyl-8-(2-methylpyrimidin-5-yl)-9H-purin-6-amine]
6 | < 1 nM | >10 | CCn1c(-c2cnc(C)nc2)nc2c(N[C@H]3CCN(C(=O)C4CC4CF)C3)ncnc21 (mixture of isomers) [Compound 2-37, ((S)-3-((9-ethyl-8-(2-methylpyrimidin-5-yl)-9H-purin-6-yl)amino)pyrrolidin-1-yl)((1S,2S and 1R,2R)-2-(fluoromethyl)cyclopropyl) methanone]
7 | 1.5 nM | >10 | CCn1c(-c2cnc(C)nc2)nc2c(N[C@H]3CCN(C(=O)C4CC4(F)F)C3)ncnc21 (mixture of isomers) [Compound 2-55, N-{(3S)-1-[((R and S)-2,2-difluorocyclopropyl)carbonyl]pyrrolidin-3-yl}-9-ethyl-8-(2-methylpyrimidin-5-yl)-9H-purin-6-amine]
8 |  | >10 | CCn1c(-c2cnc(C)nc2)nc2c(N[C@H]3CCN(C(=O)C4CCCO4)C3)ncnc21 (single isomer, unassigned) [Compound 2-33, 9-ethyl-8-(2-methylpyrimidin-5-yl)-N-[(3S)-1-((R or S)-tetrahydrofuran-2-ylcarbonyl)pyrrolidin-3-yl]-9H-purin-6-amine]
9 |  | >10 | CCn1c(-c2ccc(C(F)(F)F)nc2)nc2c(N[C@H]3CCN(C(=O)C4CCOC4)C3)ncnc21 (single isomer, unassigned) [Compound 2-102, 9-ethyl-N-{(3S)-1-[(3S or 3R)-tetrahydrofuran-3-ylcarbonyl]pyrrolidin-3-yl}-8-[6-(trifluoromethyl)pyridin-3-yl]-9H-purin-6-amine]
10 | 52 nM |  | CCn1ncc(-c2nc3c(N[C@@H]4CCN(C(=O)c5nc(C)oc5C)C4)ncnc3n2C)c1C [Compound 2-2, N-{(3R)-1-[(2,5-dimethyl-1,3-oxazol-4-yl)carbonyl]pyrrolidin-3-yl}-8-(1-ethyl-5-methyl-1H-pyrazol-4-yl)-9-methyl-9H-purin-6-amine]
